# Results: patent US10729643B2, “Methods for administration and methods for treating cardiovascular diseases with resiniferatoxin” (priority 2013, dated 2020)
# Entries after “also recorded” stand apart in the source; their conditions may differ.
# How the values were obtained:
# [1] = system: IL-1 β; test: Cardiac inflammatory cytokine IL-1β levels after MI; type: in vivo, rat; conditions: epicardial RTX during MI; 1 day or 1 week after MI
# Description: (§1) This example illustrates local anti-inflammatory effects of RTX in the infarcted heart. Myocardial ischemia causes the production and release of several metabolites including bradykinin, prostaglandins and protons that stimulate cardiac sympathetic afferent nerve endings leading to increases in BP, HR and sympathetic nerve activity. As cardiac TRPV1-expressing sympathetic afferents also subserve a “dual sensory-efferent” function and release pro-inflammatory neuropeptides, we hypothesized that plasma extravasation and cardiac neuroinflammation follows myocardial ischemia. […] Inflammation in the infarct area may be due to tissue death whereas in peri-infarct and remote areas may be due to cardiac sympathetic afferent mediated neuroinflammation. This may explain why RTX prevented cardiac inflammation in non-infarct areas to a greater extent than in the infarct area.
# [2] = system: sham and CHF rats; test: In vivo left ventricular PV loop analysis
# [3] = target: T1, TRPV1-expressing cardiac afferents (Rattus norvegicus, UniProt O35433); test: TRPV1 immunofluorescence in cardiac nerve endings after epicardial RTX; type: in vivo
# T1 construct: from tissue; host or cells: cardiac (epicardial) nerve endings of male Sprague-Dawley rats, in vivo
# T1 sequence (O35433 whole entry): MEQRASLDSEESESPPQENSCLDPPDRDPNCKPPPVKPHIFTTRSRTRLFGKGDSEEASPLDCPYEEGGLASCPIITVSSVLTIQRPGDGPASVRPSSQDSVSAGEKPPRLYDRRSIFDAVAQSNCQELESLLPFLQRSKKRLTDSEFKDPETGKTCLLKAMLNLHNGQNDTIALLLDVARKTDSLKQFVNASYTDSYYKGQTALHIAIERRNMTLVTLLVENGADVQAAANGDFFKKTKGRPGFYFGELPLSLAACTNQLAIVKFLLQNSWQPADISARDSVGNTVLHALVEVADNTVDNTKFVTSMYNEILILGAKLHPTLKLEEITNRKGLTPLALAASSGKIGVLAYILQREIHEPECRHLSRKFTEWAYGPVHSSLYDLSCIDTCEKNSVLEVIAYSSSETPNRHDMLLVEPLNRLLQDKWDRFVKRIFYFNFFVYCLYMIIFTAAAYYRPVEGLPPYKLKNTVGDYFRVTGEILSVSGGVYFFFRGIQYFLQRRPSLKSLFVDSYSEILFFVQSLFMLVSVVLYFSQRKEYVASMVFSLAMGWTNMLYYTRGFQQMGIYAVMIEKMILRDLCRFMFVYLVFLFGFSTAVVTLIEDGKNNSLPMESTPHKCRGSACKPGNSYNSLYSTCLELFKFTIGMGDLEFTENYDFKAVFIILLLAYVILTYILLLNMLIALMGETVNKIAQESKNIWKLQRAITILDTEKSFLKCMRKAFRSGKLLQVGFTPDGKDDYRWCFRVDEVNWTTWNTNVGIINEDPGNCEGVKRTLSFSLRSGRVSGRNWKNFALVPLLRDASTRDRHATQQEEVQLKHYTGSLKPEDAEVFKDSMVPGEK
# Procedure: (§2) In order to desensitize cardiac sympathetic afferents in rats, resiniferatoxin (RTX, 1 mg; Sigma Aldrich) was dissolved in 2 ml of ethanol and mixed with 18 ml of Tween in isotonic saline. RTX (50 μg/ml) was applied twice on the entire left and right ventricles with a swab just prior to coronary ligation. The dose of RTX was determined by preliminary experiments in which we found nearly complete ablation of TRPV1-expressing cardiac nerve endings on the surface of the rat heart for more than 10 weeks. Rat surgery was performed 9-11 weeks post-MI. Rats were anesthetized with urethane (800 mg/kg ip) and α-chloralose (40 mg/kg ip). Renal sympathetic nerve activity (RSNA) and cardiac sympathetic nerve activity (CSNA) were recorded for evaluating basal renal and cardiac sympathetic tone.
# More specifically, we examined TRPV1 protein expression in cardiac nerve endings from vehicle and RTX-treated rats using immunofluorescence. Experiments were performed on male Sprague-Dawley rats weighing −400 to −500 g. […] Cardiac function in all experimental animals was measured 2 and 6 weeks after MI by echocardiography (VEVO 770, Visual Sonics, Inc.) as described in (Wang et al., J. Appl. Physiol. 2010; 108:1365-1375; Wang et al. 2, Am. J. Physiol. Regul. Integr. Comp. Physiol. 2012; 320:R1260-R1270; and Wang et al. 3, J. Physiol. 2010; 588:5033-5047). […]
# [4] = system: infarcted heart / CSAR activation; test: Cardiac plasma extravasation (Evans Blue area); type: in vivo, rat
# Description: as §1
# [5] = system: nerve endings in the skin; conditions: topical administration at the nerve endings in the skin; cited from earlier work
# [6] = system: cardiac sympathetic afferent reflex (CSAR); test: CSAR activation: cardiovascular and sympathetic responses to epicardial capsaicin or bradykinin; type: in vivo, rat; conditions: for cardiovascular responses to acute epicardial application of capsaicin and bradykinin: sham rats
# Procedure: as §2
# In another parallel set of experiments, we further confirmed the efficiency of RTX-induced TRPV1-expressing CSAR afferent ablation functionally by epicardial application of capsaicin and bradykinin (10 μg/ml) in sham+RTX rats treated with various doses (0.5 μg/ml, 5 μg/ml and 50 μg/ml) and at various time points (1 week, 4-6 weeks, 9-11 weeks and 6 months after RTX). […] Therefore, a higher dose greater than 5 μg/ml should be used for epicardial administration.
# To determine activation of the CSAR, epicardial application of capsaicin and bradykinin was used to effectively stimulate the cardiac sympathetic afferents (Zahner et al. J. Physiol. 2003; 551:515-523). The time interval between capsaicin and bradykinin was about 15-20 min to allow the arterial pressure (AP), heart rate (HR) and renal sympathetic nerve activity (RSNA) to return to, and stabilize at their control levels.
# [7] = system: myocardium of sham and CHF rats; test: Cardiac apoptosis: TUNEL staining and cleaved caspase 3; type: in vivo, rat
# Description: This example illustrates the effects of RTX on cardiac fibrosis in sham and CHF rats. Considering that RTX-mediated reduction in LVEDP in CHF rats may be related to an improvement in cardiac compliance, we further evaluated cardiac fibrosis using picrosirus red staining and protein expression of two fibrotic markers (a smooth muscle actin and fibronectin) as well as their upstream activator, transforming growth factor (TGF) β receptor I in the non-infarcted LV and inter-ventricular septum (IVS) walls from sham and CHF rats treated with either vehicle or RTX. For histopathology, the rat heart was fixed in 10% phosphate buffered formalin, embedded in paraffin, and cut into 10 μm serial sections from apex to base. Picrosirius red staining was performed to detect myocardial fibrosis. Immunohistochemistry staining of cleaved caspase 3 (CC3) was also performed in paraffin sections from the same heart tissues which were used for picrosirius red staining experiments.
# This example illustrates effects of RTX on cardiac apoptosis in sham and CHF rats. Cardiac remodeling includes hypertrophy, fibrosis and apoptosis. Based on the beneficial effects of RTX on cardiac hypertrophy and cardiac fibrosis in CHF rats, we further investigated the effect of RTX on cardiac apoptosis in sham and CHF rats. TUNEL staining was performed. Terminal deoxynucleotidyl transferase dUTP-mediated nick-end labeling (TUNEL) staining and analysis was performed to evaluate the effect of RTX on cardiac apoptosis. Representative photomicrographs are depicted in FIG. 6A.
# [8] = sham and CHF rats, 9-11 weeks after epicardial RTX 50 μg/ml
smiles,measurement,setting,value
"C=C(C)[C@]12C[C@@H](C)[C@@]34O[C@](Cc5ccccc5)(O[C@@H]1[C@@H]3C=C(COC(=O)Cc1ccc(O)c(OC)c1)C[C@]1(O)C(=O)C(C)=C[C@@H]41)O2 [RTX, resiniferatoxin]",increased IL-1 β expression in peri-infarct and remote areas post MI,[1],markedly attenuated
same,increased IL-1 β level in the infarct area,[1],partially prevented
same,"basal contractile function (dP/dtmax, PRSW and ESPVR)",[2]; CHF rats,did not have a significant effect
same,LV chamber size,[2]; CHF+RTX vs CHF+vehicle,reduction
same,Tau and LVEDP,[2]; CHF+RTX vs CHF+vehicle,reduced
same,dP/dtmin,[2]; CHF+RTX vs CHF+vehicle,increased
same,ventricular stiffness as shown by the EDPVR,[2]; CHF+RTX vs CHF+vehicle,reduced stiffness
same,contractile and relaxation parameters,[2]; sham rats,no effect
same,TRPV1 immunoreactivity in the epicardium,"[3]; 1 week, 4-6 weeks and 9-11 weeks after epicardial RTX 50 μg/ml",absent
same,duration of nearly complete ablation of TRPV1-expressing cardiac nerve endings on the surface of the rat heart,"[3]; epicardial RTX 50 μg/ml, preliminary experiments",more than 10 weeks
same,plasma extravasation following CSAR activation by epicardial capsaicin or bradykinin,[4]; chronic CSAR denervation by RTX,largely be abolished
same,cardiac plasma extravasation after MI (Evans Blue area),"[4]; epicardial RTX at the time of coronary ligation, day 1 to more than 1 week after MI",almost completely abolished
same,sensitivity to chemical pain stimulation,[5],long-lasting insensitivity
same,sham rats showing partial recovery of the cardiovascular responses to capsaicin and bradykinin,"[6]; 10 weeks after epicardial RTX 5 μg/ml, preliminary experiment",40%
same,duration for which CSAR was abolished,[6]; RTX 50 μg/ml applied to the surface of heart,9-11 weeks
same,sensitivity to capsaicin and bradykinin,"[6]; all rats, 10 weeks after epicardial RTX 50 μg/ml",still insensitive
same,cardiovascular responses to capsaicin and bradykinin / CSAR sensitivity at 6 months after RTX,"[6]; epicardial RTX 50 μg/ml, 6 months",recovery of CSAR sensitivity; also recorded: largely recovered
same,duration for which cardiovascular responses to capsaicin and bradykinin were abolished,"[6]; epicardial RTX 50 μg/ml, time course experiments",more than 10 weeks
same,bradykinin-induced CSAR activation,[6]; [8],greatly attenuated
same,"cardiovascular and sympathetic activation (MAP, HR, RSNA) in response to epicardial capsaicin",[6]; [8],almost completely abolished
same,cardiovascular responses to acute epicardial application of capsaicin and bradykinin,[6]; 1 week after epicardial RTX 5 μg/ml,largely abolished
same,cardiovascular responses to acute epicardial application of capsaicin and bradykinin,[6]; 1 week after epicardial RTX 50 μ/ml,largely abolished
same,TUNEL-positive cells,"[7]; LV infarct, LV peri-infarct, LV remote and IVS regions, CHF+RTX vs CHF+vehicle",markedly reduced
same,increased cleaved caspase 3-positive cardiomyocytes,"[7]; LV peri-infarct, LV remote and IVS regions, CHF rats, immunohistochemistry",largely prevented
same,elevated protein expression of cleaved caspase 3,"[7]; LV remote and IVS regions, CHF rats",prevented
same,difference in number of TUNEL-positive cells in the heart,[7]; sham+vehicle vs sham+RTX rats,no significant difference
